IC50 data for three molecules are collected here from ChEMBL document CHEMBL3808343, “Glutaminase GLS1 Inhibitors as Potential Cancer Treatment” (ACS Med Chem Lett, 2016).

The subject of one experiment is NCI-H1703. As to the kind of experiment: Antiproliferative activity against human NCI-H1703 cells assessed as reduction in cell growth after 5 days by Sytox Green dye based assay. The format is functional. The note with it: NCI-H1703, 120 h.
In experiment [1] the target is T1, Glutaminase kidney isoform, mitochondrial (Homo sapiens, UniProt O94925).
T1 sequence (O94925 whole entry): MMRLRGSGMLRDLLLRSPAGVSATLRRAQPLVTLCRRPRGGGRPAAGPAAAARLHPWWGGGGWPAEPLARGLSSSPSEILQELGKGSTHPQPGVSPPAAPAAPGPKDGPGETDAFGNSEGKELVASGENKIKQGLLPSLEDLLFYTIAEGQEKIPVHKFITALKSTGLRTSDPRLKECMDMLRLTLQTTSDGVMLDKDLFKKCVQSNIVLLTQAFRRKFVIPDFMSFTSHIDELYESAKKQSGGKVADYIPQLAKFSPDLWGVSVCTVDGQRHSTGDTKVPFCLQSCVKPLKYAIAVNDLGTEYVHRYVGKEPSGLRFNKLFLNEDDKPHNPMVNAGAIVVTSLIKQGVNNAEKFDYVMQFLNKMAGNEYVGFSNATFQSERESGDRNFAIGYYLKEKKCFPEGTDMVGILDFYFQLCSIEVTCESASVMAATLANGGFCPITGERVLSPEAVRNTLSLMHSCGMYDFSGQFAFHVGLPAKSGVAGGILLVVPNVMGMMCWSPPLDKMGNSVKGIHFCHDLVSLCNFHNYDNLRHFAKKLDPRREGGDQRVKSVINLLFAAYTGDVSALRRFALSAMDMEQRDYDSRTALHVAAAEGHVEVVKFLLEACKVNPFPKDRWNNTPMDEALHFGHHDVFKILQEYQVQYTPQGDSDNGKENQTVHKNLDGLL
Description: Inhibition of 6His-tagged GLS1 (63-669 residues) (unknown origin) expressed in Escherichia coli using glutamine as substrate after 15 mins by Glutamate Oxidase/ AmplexRed coupled assay

Experiment [2] has as its target T1, Glutaminase kidney isoform, mitochondrial. As to the kind of experiment: Inhibition of GLS1 in human PC3 cells assessed as cellular glutamate depletion levels after 6 hrs by Glutamate Oxidase/ AmplexRed coupled assay. The experiment is classed as cell-based, PC-3.

Molecules are shown by their SMILES.

`COc1ccc([C@H](OC)C(=O)Nc2nnc(N[C@@H]3CCN(c4cccnn4)C3)s2)cc1`: the IC50 (commonly the midpoint of a concentration-inhibition curve) with NCI-H1703 was determined as 10.8 nM.
As for `COc1cc([C@@H](OC)C(=O)Nc2nnc(N[C@@H]3CCN(c4cncnn4)C3)s2)ccc1F`, the values for the IC50 (in the experiment with NCI-H1703; in experiment [1]; in experiment [2]) were 107 nM, 70.7 nM and 4.99 nM, respectively.
As to `CO[C@H](C(=O)Nc1nnc(N[C@@H]2CCN(c3cncnn3)C2)s1)c1ccccc1`, the IC50 in the experiment on NCI-H1703 turned out to be 3.24 nM.
